Results as given in US7759362B2, “Quinolonecarboxylic acid compounds, preparation methods and pharmaceutical uses thereof” (Institut of Medicinal Biotechnology Chinese Academy of …, priority 2004, dated 2010).
Converted amounts (≈) assume the structure as drawn.

Legend:
S. pyogenes 26 = assay: MIC, two-fold plate dilution method; type: cell-based; conditions: S. pyogenes 26, Gram-positive; Muener-Hinton medium
Excerpt: (§1) . The pharmaceutically acceptable salts or hydrates thereof have the same antibacterial activity.
(§2) Two-fold plate dilution method is used for determination of activity, with Muener-Hinton medium (DIFCO) as the culture medium and clinically isolated pathogenic strain, quality control strain and standard strain (provided by National Institute for the Control of Pharmaceutical and Biological Products) as test strains.

Enterococcus 755 = assay: MIC, two-fold plate dilution method; type: cell-based; conditions: Enterococcus 755, Gram-positive; Muener-Hinton medium
Excerpt: as §1, §2

P. aeruginosa 17 = assay: MIC, two-fold plate dilution method; type: cell-based; conditions: P. aeruginosa 17, Gram-negative; Muener-Hinton medium
Excerpt: as §1, §2

K. pneumoniae 14 = assay: MIC, two-fold plate dilution method; type: cell-based; conditions: K. pneumoniae 14, Gram-negative; Muener-Hinton medium
Excerpt: as §1, §2

S. epidermidis 26069 = assay: MIC, two-fold plate dilution method; type: cell-based; conditions: S. epidermidis 26069, Gram-positive; Muener-Hinton medium
Excerpt: as §1, §2

S. pneumoniae 98 = assay: MIC, two-fold plate dilution method; type: cell-based; conditions: S. pneumoniae 98, Gram-positive; Muener-Hinton medium
Excerpt: as §1, §2

K. pneumoniae 7 = assay: MIC, two-fold plate dilution method; type: cell-based; conditions: K. pneumoniae 7, Gram-negative; Muener-Hinton medium
Excerpt: as §1, §2

E. coli ATTC 25922 = assay: MIC, two-fold plate dilution method; type: cell-based; conditions: E. coli ATTC 25922, Gram-negative; Muener-Hinton medium
Excerpt: as §1, §2

E. coli 26 = assay: MIC, two-fold plate dilution method; type: cell-based; conditions: E. coli 26, Gram-negative; Muener-Hinton medium
Excerpt: as §1, §2

S. pneumoniae 70 = assay: MIC, two-fold plate dilution method; type: cell-based; conditions: S. pneumoniae 70, Gram-positive; Muener-Hinton medium
Excerpt: as §1, §2

S. aureus ATTC 25923 = assay: MIC, two-fold plate dilution method; type: cell-based; conditions: S. aureus ATTC 25923, Gram-positive; Muener-Hinton medium
Excerpt: as §2

[1] = Acute oral toxicity in mice; conditions: mouse, in vivo, male mice, deaths after 7 days, Bliss program
Experimental: Toxicity experiments are carried out on the compounds prepared in embodiment 11, 13 and 15 to determine the acute oral toxicity of the present compounds. Solutions of the three compounds in different concentrations are administered to male mice at a dosage of 0.1 mL/10 g body weight, then the number of dead mice after 7 days is recorded, and lethal dose 50% (LD50) is calculated for each compound by Bliss program.

S. pneumoniae = conditions: compared with gatifloxacin; cited from earlier work

`Cl.O=C(O)c1cn(C2CC2)c2c(OC(F)F)c(N3C[C@@H]4CCCN[C@@H]4C3)c(F)cc2c1=O` (relative stereo) [Embodiment 15, 1-Cyclopropyl-8-difluoromethoxyl-7-[cis-2,8-diazabicyclo[4,3,0]nonane-8-yl]-6-fluoro-1,4-dihydro-4-oxoquinoline-3-carboxylic acid hydrochloride] gave an MIC (S. pyogenes 26) of 0.25 µg/mL, an MIC (Enterococcus 755) of 0.25 µg/mL and an MIC (P. aeruginosa 17) of 0.5 µg/mL. It also gave an MIC (K. pneumoniae 14) of 0.03 µg/mL, an MIC (S. epidermidis 26069) of 0.5 µg/mL and an MIC (S. pneumoniae 98) of 0.125 µg/mL. The MIC (K. pneumoniae 7) was 0.03 µg/mL, the MIC (E. coli ATTC 25922) was 0.25 µg/mL and the MIC (E. coli 26) was 0.03 µg/mL. For the same compound, the MIC (S. pneumoniae 70) was 0.06 µg/mL, the MIC (S. aureus ATTC 25923) was 0.125 µg/mL and the LD50 at 7 days [1] was over 4000 mg/kg.
Work on `Nc1c(F)c(N2C[C@@H]3CCCN[C@@H]3C2)c(OC(F)F)c2c1c(=O)c(C(=O)O)cn2C1CC1` (relative stereo) [Embodiment 21, 5-Amino-1-cyclopropyl-8-difluoromethoxyl-7-(cis-2,8-diazabicyclo[4,3,0]nonane-8-yl)-6-fluoro-1,4-dihydro-4-oxoquinoline-3-carboxylic acid] yielded an MIC (S. pyogenes 26) of 0.25 µg/mL (≈ 0.553 µM), an MIC (Enterococcus 755) of 0.25 µg/mL (≈ 0.553 µM) and an MIC (P. aeruginosa 17) of 0.25 µg/mL (≈ 0.553 µM). The MIC (K. pneumoniae 14) was 0.015 µg/mL (≈ 0.0332 µM), the MIC (S. epidermidis 26069) was 0.25 µg/mL (≈ 0.553 µM) and the MIC (S. pneumoniae 98) was 0.03 µg/mL (≈ 0.0663 µM). The MIC (K. pneumoniae 7) was 0.015 µg/mL (≈ 0.0332 µM), the MIC (E. coli ATTC 25922) was under 0.007 µg/mL and the MIC (E. coli 26) was under 0.007 µg/mL. It also gave an MIC (S. pneumoniae 70) of 0.06 µg/mL (≈ 0.133 µM) and an MIC (S. aureus ATTC 25923) of 0.03 µg/mL (≈ 0.0663 µM).
`O=C(O)c1cn(C2CC2)c2cc(N3CCNCC3)c(F)cc2c1=O` [Ciprofloxacin, ciprofloxacin, reference compound] gave an MIC (K. pneumoniae 7) of 0.015 g/mL.
`Cl.O=C(O)c1cn(C2CC2)c2c(OC(F)F)c(N3C[C@@H]4CCCN[C@@H]4C3)c(F)cc2c1=O` [Embodiment 13, 1-cyclopropyl-8-difluoromethoxyl-7-[(1S,6S)-2,8-diazabicyclo[4,3,0]nonane-8-yl]-6-fluoro-1,4-dihydro-4-oxoquinoline-3-carboxylic acid hydrochloride] gave an MIC (S. pyogenes 26) of 0.25 µg/mL, an MIC (Enterococcus 755) of 0.25 µg/mL and an MIC (P. aeruginosa 17) of 0.25 µg/mL. The MIC (K. pneumoniae 14) was 0.015 µg/mL, the MIC (S. epidermidis 26069) was 0.25 µg/mL and the MIC (S. pneumoniae 98) was 0.015 µg/mL. The MIC (K. pneumoniae 7) was 0.015 µg/mL, the MIC (E. coli ATTC 25922) was 0.015 µg/mL and the MIC (E. coli 26) was 0.015 µg/mL. For the same compound, the MIC (S. pneumoniae 70) was 0.125 µg/mL, the MIC (S. aureus ATTC 25923) was 0.03 µg/mL and the LD50 at 7 days [1] was over 4000 mg/kg.
In the case of `Cl.O=C(O)c1cn(C2CC2)c2c(OC(F)F)c(N3C[C@H]4CCCN[C@H]4C3)c(F)cc2c1=O` [Embodiment 14, 1-cyclopropyl-8-difluoromethoxyl-7-[(1R,6R)-2,8-diazabicyclo[4,3,0]nonane-8-yl]-6-fluoro-1,4-dihydro-4-oxoquinoline-3-carboxylic acid hydrochloride], the MIC (S. pyogenes 26) is reported as 0.5 µg/mL, the MIC (Enterococcus 755) is reported as 0.25 µg/mL and the MIC (P. aeruginosa 17) is reported as 1 µg/mL. It also gave an MIC (K. pneumoniae 14) of 0.03 µg/mL, an MIC (S. epidermidis 26069) of 0.5 µg/mL and an MIC (S. pneumoniae 98) of 0.015 µg/mL. It also gave an MIC (K. pneumoniae 7) of 0.03 µg/mL, an MIC (E. coli ATTC 25922) of 0.015 µg/mL and an MIC (E. coli 26) of 0.03 µg/mL. It also gave an MIC (S. pneumoniae 70) of 0.06 µg/mL and an MIC (S. aureus ATTC 25923) of 0.03 µg/mL.
`Cl.Nc1c(F)c(N2C[C@@H]3CCCN[C@@H]3C2)c(OC(F)F)c2c1c(=O)c(C(=O)O)cn2C1CC1` [Embodiment 17, 5-amino-1-cyclopropyl-8-difluoromethoxyl-7-[(1S,6S)-2,8-diazabicyclo[4,3,0]nonane-8-yl]-6-fluoro-1,4-dihydro-4-oxoquinoline-3-carboxylic acid hydrochloride] showed an MIC (S. pyogenes 26) of 0.25 µg/mL, an MIC (Enterococcus 755) of 0.015 µg/mL and an MIC (P. aeruginosa 17) of 0.25 µg/mL. The MIC (K. pneumoniae 14) was 0.015 µg/mL, the MIC (S. epidermidis 26069) was 0.25 µg/mL and the MIC (S. pneumoniae 98) was 0.015 µg/mL. The MIC (K. pneumoniae 7) was 0.015 µg/mL, the MIC (E. coli ATTC 25922) was 0.051 µg/mL and the MIC (E. coli 26) was 0.015 µg/mL. It also gave an MIC (S. pneumoniae 70) of 0.015 µg/mL, an MIC (S. aureus ATTC 25923) of 0.03 µg/mL and an LD50 at 7 days [1] of over 4000 mg/kg.
In the case of `Cl.Nc1c(F)c(N2C[C@H]3CCCN[C@H]3C2)c(OC(F)F)c2c1c(=O)c(C(=O)O)cn2C1CC1` [Embodiment 18, 5-Amino-1-cyclopropyl-8-difluoromethoxyl-7-[(1R,6R)-2,8-diazabicyclo[4,3,0]nonane-8-yl]-6-fluoro-1,4-dihydro-4-oxoquinoline-3-carboxylic acid hydrochloride], the MIC (S. pyogenes 26) is reported as 0.25 µg/mL, the MIC (Enterococcus 755) is reported as 0.06 µg/mL and the MIC (P. aeruginosa 17) is reported as 0.25 µg/mL. It also gave an MIC (K. pneumoniae 14) of 0.015 µg/mL, an MIC (S. epidermidis 26069) of 0.25 µg/mL and an MIC (S. pneumoniae 98) of 0.125 µg/mL. For the same compound, the MIC (K. pneumoniae 7) was 0.015 µg/mL, the MIC (E. coli ATTC 25922) was 0.015 µg/mL and the MIC (E. coli 26) was 0.015 µg/mL. The MIC (S. pneumoniae 70) was 0.03 µg/mL and the MIC (S. aureus ATTC 25923) was 0.06 µg/mL.
For `C[C@H]1NCc2cc(-c3ccc4c(=O)c(C(=O)O)cn(C5CC5)c4c3OC(F)F)ccc21` [Embodiment T-3811], the “in vitro activity against S. pneumoniae (in words)” value (S. pneumoniae) is given as “enhanced in vitro activity against S. pneumoniae, even superior to gatifloxacin”.
`COc1c(N2C[C@@H]3CCCN[C@@H]3C2)c(F)cc2c(=O)c(C(=O)O)cn(C3CC3)c12` [Moxifloxacin, moxifloxacin, reference compound] showed an MIC (S. pyogenes 26) of 0.5 µg/mL (≈ 1.25 µM), an MIC (Enterococcus 755) of 0.5 µg/mL (≈ 1.25 µM) and an MIC (P. aeruginosa 17) of 0.5 µg/mL (≈ 1.25 µM). The MIC (K. pneumoniae 14) was 0.03 µg/mL (≈ 0.0747 µM), the MIC (S. epidermidis 26069) was 0.5 µg/mL (≈ 1.25 µM) and the MIC (S. pneumoniae 98) was 0.125 µg/mL (≈ 0.311 µM). The MIC (K. pneumoniae 7) was 0.03 µg/mL (≈ 0.0747 µM), the MIC (E. coli ATTC 25922) was 0.03 µg/mL (≈ 0.0747 µM) and the MIC (E. coli 26) was 0.03 µg/mL (≈ 0.0747 µM). For the same compound, the MIC (S. pneumoniae 70) was 0.125 µg/mL (≈ 0.311 µM) and the MIC (S. aureus ATTC 25923) was 0.06 µg/mL (≈ 0.149 µM).
